Measured values published in US5658917A, “Isoquinolines having adenosine uptake inhibitor activity” (Kyowa Hakko Kogyo Co., Ltd., priority 1993, dated 1997).

What was measured:
[1] = target: T1, [^3 H]-Nitrobenzylthioinosine (NBI) binding, cerebral cortex tissue homogenate (Cavia porcellus, UniProt H0V4R7); assay: Inhibitory effect on [^3 H]-nitrobenzylthioinosine (NBI) binding; design: species or system guinea pig (Hartley strain, male); conditions: guinea pig cerebral cortex; 1.5 nM [^3 H]-NBI; 25° C., 30 minutes; Cheng-Prusoff
T1 construct: The cerebral cortex of a male guinea pig of Hartley strain was homogenized; from tissue; host or cells: guinea pig (male, Hartley strain) cerebral cortex, washed membrane suspension
T1 sequence (H0V4R7 1-461): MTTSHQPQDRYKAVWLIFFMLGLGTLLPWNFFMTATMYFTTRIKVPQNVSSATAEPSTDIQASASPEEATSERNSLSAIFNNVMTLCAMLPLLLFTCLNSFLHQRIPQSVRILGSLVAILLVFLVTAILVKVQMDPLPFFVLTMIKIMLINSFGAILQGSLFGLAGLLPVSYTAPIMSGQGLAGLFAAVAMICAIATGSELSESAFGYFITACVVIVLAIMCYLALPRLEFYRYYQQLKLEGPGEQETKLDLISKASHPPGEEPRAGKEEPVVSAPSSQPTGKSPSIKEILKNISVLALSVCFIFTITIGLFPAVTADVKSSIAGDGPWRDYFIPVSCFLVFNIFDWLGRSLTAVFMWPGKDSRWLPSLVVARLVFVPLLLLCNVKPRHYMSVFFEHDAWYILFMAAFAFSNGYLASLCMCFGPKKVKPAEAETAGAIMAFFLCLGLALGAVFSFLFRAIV
Description: Test Example 2 Inhibitory Effect on [^3 H]-Nitrobenzylthioinosine (NBI) Binding (an indication of adenosine uptake inhibitory activity)
The cerebral cortex of a male guinea pig of Hartley strain was homogenized with an ice-cooled 50 mM tris-HCl buffer (pH 7.4) in an amount of 25 times (w/v) that of the tissue. The homogenate was centrifuged (30,000×g, 4° C., 20 mins.), and the supernatant was discarded. To the precipitate was added the same amount of the buffer, followed by homogenization and then centrifugation in the same manner as above. The obtained precipitate was suspended in 20 times as much buffer as the precipitate to prepare a suspension for testing.
To a DMSO solution of a test compound were added 1.5 nM of [^3 H]-NBI and 5 mg (wet basis) of the tissue homogenate, and the mixture was allowed to stand at 25° C. for 30 minutes. To the mixture was added 4 ml of an ice-cooled buffer, followed by rapid filtration with suction through a glass filter (GF/C, produced by Whatman Ltd.) or a Ready filter (produced by Beckman Co.) to stop the reaction. The filter was transferred to a scintillation vial, and after drying, Scintisol EX-H was added thereto. The radioactivity was measured with a liquid scintillation counter. The binding inhibitory activity was expressed in terms of an inhibition constant (Ki value) as calculated according to Cheng-Prusoff's formula.

[2] = Inhibitory effect on ischemic paw edema in mice; type: in vivo, mouse (ddY-strain, male); conditions: 30 mg/kg orally 1 hour before 20 min ischemia; for Paw Edema Supression Rate After 20 minutes: 20 minutes after blood recirculation; for Paw Edema Supression Rate After 40 minutes: 40 minutes after blood recirculation; for Paw Edema Supression Rate After 60 minutes: 60 minutes after blood recirculation
Source text: Test Example 3 Inhibitory Effect on Ischemic Paw Edema in Mice
Ischemia followed by reperfusion in the limb of a mouse induces paw edema due to membrane injury in which active oxygen is involved [Arzneim.-Forsch., 41, 469-474 (1991)]. In general, peroxidation of membrane lipid and calcium influx into cells play roles in ischemia-reperfusion injury [Life Science, 29, 1289-1295 (1981); Japan J. Pharmacol., 52, 553-562 (1990)]. It is active oxygen production that triggers these factors, and the source of active oxygen includes endothelial cells and leukocytes [J. Mol. Cell Cardiol., 20 (Suppl. II), 55-63 (1988); Blood, 73, 301-306 (1989)]. […] J. Physiol., 257, H1334-1339 (1989); J. Immunol., 135, 1366-1371 (1985)]. Accordingly, it is believed that a compound effective on an ischemic podedema model in mice as hereinafter described would provide a convenient and useful model for evaluating an adenosine uptake inhibitor.
Experiments were conducted in accordance with the method described in Arzneim.-Forsch., 41, 469-474 (1991). A test compound was suspended in water and orally given to grouped male mice of ddY-strain weighing 25 to 30 g at a dose of 30 mg/kg. One hour later, the left hind limb was bound with a rubber band for 20 minutes to cause ischemia, and 20, 40 and 60 minutes after blood recirculation, the paw thickness was measured with a pair of calipers (Digimatic Caliper manufactured by Mitsutoyo K.K.). The paw edema was determined as the difference in thickness between the left hind paw (ischemia-treated) and the non-treated right one. Each result was expressed in terms of percent suppression of edema in a test compound group on the basis of the edema in a control group.

[3] = tested on: ddY-strain male mice; assay: Acute toxicity test; type: in vivo; conditions: mortality seven days after administration
Source text: Test Example 4 Acute Toxicity Test
A test compound was intraperitoneally or orally administered to groups of ddY-strain male mice weighing 20±1 g, each group consisting of three mice.

[4] = tested on: [^3 H]-adenosine uptake by washed erythrocytes; assay: Inhibitory effect on [^3 H]-adenosine uptake (washed erythrocytes); type: cell-based, human (healthy male adult); conditions: Erythrocyte; human washed erythrocytes; 1 hour preincubation at room temperature; 10 seconds uptake; read-out: [^3 H]-Adenosine Uptake Inhibition IC50
Description: Test Example 1 Inhibitory Effect on [^3 H]-Adenosine Uptake
[…] To 100 μl of an erythrocyte suspension (2.5×10^9 /ml) was added 10 μl of a 21% DMSO solution of a test compound. After allowing the suspension to stand at room temperature for 1 hour, 100 μl of a [^3 H]-adenosine solution was added thereto. Ten seconds later, 200 μl of a dilazep solution (1 mg/ml) was added to stop the reaction. The erythrocytes were dissolved in Triton X-100, and the uptake amount of ^3 H was measured with a liquid scintillation counter. The concentration of the test compound which inhibits the [^3 H]-adenosine uptake by 50% (IC50) was calculated.

Ki [1] [µM] | IC50 [4] [µM] | SMILES | further results
0.015 | 0.038 | COc1cc2ncnc(N3CCC(n4c(=O)[nH]c5ccc([N+](=O)[O-])cc5c4=O)CC3)c2cc1OC [Compound 24, 3-[1-(6,7-Dimethoxy-4-quinazolinyl)-4-piperidinyl]-1,2,3,4-tetrahydro-6-nitro-2,4-dioxoquinazoline] | 
0.011 | 0.157 | COc1ccc2c(c1)c(=O)n(C1CCN(c3ncnc4cc(OC)c(OC)cc34)CC1)c(=O)n2C [Compound 69, 3-[1-(6,7-Dimethoxy-4-quinazolinyl)-4-piperidinyl]-1,2,3,4-tetrahydro-6-methoxy-1-methyl-2,4-dioxo-quinazoline] | 
0.0069 | 0.054 | COc1cc2ncnc(N3CCC(n4c(=O)c5cc(Br)ccc5n(C)c4=O)CC3)c2cc1OC [Compound 45, 6-Bromo-3-[1-(6,7-dimethoxy-4-quinazolinyl)-4-piperidinyl]-1,2,3,4-tetrahydro-1-methyl-2,4-dioxo-quinazoline] | 
0.012 | 0.054 | COc1cc2ncnc(N3CCC(n4c(=O)c5cc(C)ccc5n(C)c4=O)CC3)c2cc1OC [Compound 50, 3-[1-(6,7-Dimethoxy-4-quinazolinyl)-4-piperidinyl]-1,2,3,4-tetrahydro-1,6-dimethyl-2,4-dioxoquinazoline] | 
 | 0.127 | COc1cc2nc(C)nc(N3CCC(n4c(=O)c5cc(C)ccc5n(C)c4=O)CC3)c2cc1OC [Compound 80, 3-[1-(6,7-Dimethoxy-2-methyl-4-quinazolinyl)-4-piperidinyl]-1,2,3,4-tetrahydro-1,6-dimethyl-2,4-dioxo-quinazoline] | 
 | 0.462 | CCOC(=O)Cn1c(=O)n(C2CCN(c3ncnc4cc(OC)c(OC)cc34)CC2)c(=O)c2cc([N+](=O)[O-])ccc21 [Compound 6, 3-[1-(6,7-Dimethoxy-4-quinazolinyl)-4-piperidinyl]-1-ethoxycarbonylmethyl-1,2,3,4-tetrahydro-6-nitro-2,4-dioxoquinazoline] | 
 | 0.088 | COc1cc2ncnc(N3CCC(n4c(=O)c5cc(C(C)=O)ccc5n(C)c4=O)CC3)c2cc1OC [Compound 63, 6-Acetyl-3-[1-(6,7-dimethoxy-4-quinazolinyl)-4-piperidinyl]-1,2,3,4-tetrahydro-1-methyl-2,4-dioxo-quinazoline] | 
0.018 | 0.042 | COc1cc2ncnc(N3CCC(n4c(=O)c5cc([N+](=O)[O-])ccc5n(C)c4=O)CC3)c2cc1OC [Compound 1, 3-[1-(6,7-Dimethoxy-4-quinazolinyl)-4-piperidinyl]-1,2,3,4-tetrahydro-1-methyl-6-nitro-2,4-dioxoquinazoline] | 
 | 0.171 | CCCc1ccc2c(c1)c(=O)n(C1CCN(c3ncnc4cc(OC)c(OC)cc34)CC1)c(=O)n2C [Compound 55, 3-[1-(6,7-Dimethoxy-4-quinazolinyl)-4-piperidinyl]-1,2,3,4-tetrahydro-1-methyl-2,4-dioxo-6-propyl-quinazoline] | 
 | 0.295 | COc1cc2ncnc(N3CCC(n4c(=O)c5cc([N+](=O)[O-])ccc5n(Cc5ccccc5)c4=O)CC3)c2cc1OC [Compound 8, 1-Benzyl-3-[1-(6,7-dimethoxy-4-quinazolinyl)-4-piperidinyl]-1,2,3,4-tetrahydro-6-nitro-2,4-dioxo-quinazoline] | 

SMILES | Ki [1] [µM] | IC50 [4] [µM] | further results
CCCn1c(=O)n(C2CCN(c3ncnc4cc(OC)c(OC)cc34)CC2)c(=O)c2cc([N+](=O)[O-])ccc21 [Compound 3, 3-[1-(6,7-Dimethoxy-4-quinazolinyl)-4-piperidinyl]-1,2,3,4-tetrahydro-6-nitro-2,4-dioxo-1-propyl-quinazoline] | 0.0043 | 0.062 | Paw Edema Supression Rate After 20 minutes [2]: 4.8 ± 4.40%; Paw Edema Supression Rate After 40 minutes [2]: 11.6 ± 2.68%; Paw Edema Supression Rate After 60 minutes [2]: 14.9 ± 3.58%; minimum lethal dose (MLD) i.p. [3]: > 100 mg/kg; minimum lethal dose (MLD) p.o. [3]: > 300 mg/kg
CCn1c(=O)n(C2CCN(c3ncnc4cc(OC)c(OC)cc34)CC2)c(=O)c2cc([N+](=O)[O-])ccc21 [Compound 2, 3-[1-(6,7-Dimethoxy-4-quinazolinyl)-4-piperidinyl]-1-ethyl-1,2,3,4-tetrahydro-6-nitro-2,4-dioxoquinazoline] | 0.018 | 0.103 | Paw Edema Supression Rate After 20 minutes [2]: 4.1 ± 2.98%; Paw Edema Supression Rate After 40 minutes [2]: 9.0 ± 3.79%; Paw Edema Supression Rate After 60 minutes [2]: 15.5 ± 4.09%; minimum lethal dose (MLD) i.p. [3]: > 100 mg/kg; minimum lethal dose (MLD) p.o. [3]: > 300 mg/kg
